Our source for the Activity values is ChEMBL document CHEMBL1155666, “Zygosporin D and two new cytochalasins produced by the fungus Metarrhizium anisopliae” (2000).

The test system of assay [1] is Oryza sativa. Briefly: Growth retardation of rice seedlings assessed as second leaf sheath length at 1 nmol after 72 hrs exposure to continuous fluorescent light relative to control. Format: functional.
Assay [2] relates to Oryza sativa. Description: Growth retardation of rice seedlings assessed as reduction in second leaf sheath length at 1 nmol after 72 hrs exposure to continuous fluorescent light relative to water. Type of assay: functional. The arrangement: scale not given: the % may be the effect or the level left.

Take `CC1=C(C)[C@H]2[C@H](Cc3ccccc3)NC(=O)[C@]23[C@H](O)/C=C/[C@@](C)(O)C(=O)[C@@H](C)C/C=C/[C@H]3[C@@H]1O` [DEACETYLCYTOCHALASIN C]: the Activity in the assay on Oryza sativa [1] stood at 83%. `C[C@H]1[C@H]2[C@H](Cc3ccccc3)NC(=O)[C@]23[C@H](O)/C=C/[C@@](C)(O)C(=O)[C@@H](C)C/C=C/[C@H]3C(=O)[C@@H]1C`: the Activity with Oryza sativa [1] is listed as 94%. Turning to `C=C1[C@@H](C)[C@H]2[C@H](Cc3ccccc3)NC(=O)[C@]23[C@H](O)/C=C/[C@@](C)(O)C(=O)[C@@H](C)C/C=C/[C@H]3[C@@H]1O` [ZYGOSPORIN D], the Activity in the assay on Oryza sativa [2] was 41%.
